Laboratory results: patent US12344595B2, “2-amino-n-phenyl-nicotinamides as NAV1.8 inhibitors” (Merck Sharp & Dohme LLC, priority 2018, dated 2025)

Biological target: human Nav1.8 (Homo sapiens (Human), UniProt Q9Y5Y9)
Assay: Nav1.8 Qube automated patch-clamp assay
Format: cell-based
Settings: Nav1.8 Qube Assay; human Nav1.8 channels stably expressed in HEK 293 cells
Protocol: Qube® Assay Experimental Procedure
Compounds were tested on human Nav1.8 and Nav1.5 channels stably expressed in human embryo kidney (HEK) 293 cells. Sodium current measurements on Qube® were conducted as follows: automated 384-well patch-clamp assays on the Qube® platform (Sophion Biosciences) were used to measure the inhibition of sodium flow through human Nav1.8 and Nav1.5 channels. Whole-cell voltage-clamp recordings were performed in QChips® (Sophion Biosciences) at room temperature. Nav1.8 current measurements on Qube® were obtained as follows: Nav1.8 currents were elicited with a 10 second 1 Hertz (Hz) pulse train from a holding potential of −90 millivolts (mV), delivered to the cells once per minute in the control condition (DMSO only) and after compound addition. The 1 hertz pulse train stimulation consisted of ten test pulses to 10 millivolt (mV) for 20 milliseconds (ms), each of which was followed by a 980 millisecond repolarization to −67 millivolts. At the end of the 10 second pulse train stimulation, a 5 second hyperpolarization step to −100 millivolt (mV) was used to recover Nav1.8 from fast inactivation. The peak currents elicited by the 1st and 10th test pulses were used to determine IC50 values for resting inhibition and inactivated state inhibition. Nav1.5 current measurements on Qube® were obtained as follows: Nav1.5 currents were elicited with a 20 second 3 Hertz pulse train in the control condition (DMSO only) and after compound addition. The pulse train consisted of sixty 20 millisecond test pulses to 0 millivolt from a holding potential of −80 millivolt (mV). The average peak currents elicited by the last 3 test pulses were used to determine IC50 values for Nav1.5 inhibition.
The following buffers were used for the Qube® recordings: External buffer for Nav1.8 Qube® recording: 150 NaCl, 2 CaCl2, 5 KCl, 1 Mg Cl2, 10 HEPES, 12 Dextrose; External buffer for Qube® Nav1.5 recording: 120 N-Methyl-D-Glucamine, 40 NaCl, 1 KCl, 2.7 CaCl2, 5 HEPES, 0.5 MgCl2; and Internal buffer for Qube® recording: 120 CsF, 30 CsCl, 10 EGTA, 5 HEPES, 5 NaF, 2 MgCl2.
For all Qube® experiments offline analysis was used to determine percent inhibition as a function of drug concentration. IC50 values were determined by fitting to the Hill equation.

Sequence of human Nav1.8 (Q9Y5Y9 whole entry): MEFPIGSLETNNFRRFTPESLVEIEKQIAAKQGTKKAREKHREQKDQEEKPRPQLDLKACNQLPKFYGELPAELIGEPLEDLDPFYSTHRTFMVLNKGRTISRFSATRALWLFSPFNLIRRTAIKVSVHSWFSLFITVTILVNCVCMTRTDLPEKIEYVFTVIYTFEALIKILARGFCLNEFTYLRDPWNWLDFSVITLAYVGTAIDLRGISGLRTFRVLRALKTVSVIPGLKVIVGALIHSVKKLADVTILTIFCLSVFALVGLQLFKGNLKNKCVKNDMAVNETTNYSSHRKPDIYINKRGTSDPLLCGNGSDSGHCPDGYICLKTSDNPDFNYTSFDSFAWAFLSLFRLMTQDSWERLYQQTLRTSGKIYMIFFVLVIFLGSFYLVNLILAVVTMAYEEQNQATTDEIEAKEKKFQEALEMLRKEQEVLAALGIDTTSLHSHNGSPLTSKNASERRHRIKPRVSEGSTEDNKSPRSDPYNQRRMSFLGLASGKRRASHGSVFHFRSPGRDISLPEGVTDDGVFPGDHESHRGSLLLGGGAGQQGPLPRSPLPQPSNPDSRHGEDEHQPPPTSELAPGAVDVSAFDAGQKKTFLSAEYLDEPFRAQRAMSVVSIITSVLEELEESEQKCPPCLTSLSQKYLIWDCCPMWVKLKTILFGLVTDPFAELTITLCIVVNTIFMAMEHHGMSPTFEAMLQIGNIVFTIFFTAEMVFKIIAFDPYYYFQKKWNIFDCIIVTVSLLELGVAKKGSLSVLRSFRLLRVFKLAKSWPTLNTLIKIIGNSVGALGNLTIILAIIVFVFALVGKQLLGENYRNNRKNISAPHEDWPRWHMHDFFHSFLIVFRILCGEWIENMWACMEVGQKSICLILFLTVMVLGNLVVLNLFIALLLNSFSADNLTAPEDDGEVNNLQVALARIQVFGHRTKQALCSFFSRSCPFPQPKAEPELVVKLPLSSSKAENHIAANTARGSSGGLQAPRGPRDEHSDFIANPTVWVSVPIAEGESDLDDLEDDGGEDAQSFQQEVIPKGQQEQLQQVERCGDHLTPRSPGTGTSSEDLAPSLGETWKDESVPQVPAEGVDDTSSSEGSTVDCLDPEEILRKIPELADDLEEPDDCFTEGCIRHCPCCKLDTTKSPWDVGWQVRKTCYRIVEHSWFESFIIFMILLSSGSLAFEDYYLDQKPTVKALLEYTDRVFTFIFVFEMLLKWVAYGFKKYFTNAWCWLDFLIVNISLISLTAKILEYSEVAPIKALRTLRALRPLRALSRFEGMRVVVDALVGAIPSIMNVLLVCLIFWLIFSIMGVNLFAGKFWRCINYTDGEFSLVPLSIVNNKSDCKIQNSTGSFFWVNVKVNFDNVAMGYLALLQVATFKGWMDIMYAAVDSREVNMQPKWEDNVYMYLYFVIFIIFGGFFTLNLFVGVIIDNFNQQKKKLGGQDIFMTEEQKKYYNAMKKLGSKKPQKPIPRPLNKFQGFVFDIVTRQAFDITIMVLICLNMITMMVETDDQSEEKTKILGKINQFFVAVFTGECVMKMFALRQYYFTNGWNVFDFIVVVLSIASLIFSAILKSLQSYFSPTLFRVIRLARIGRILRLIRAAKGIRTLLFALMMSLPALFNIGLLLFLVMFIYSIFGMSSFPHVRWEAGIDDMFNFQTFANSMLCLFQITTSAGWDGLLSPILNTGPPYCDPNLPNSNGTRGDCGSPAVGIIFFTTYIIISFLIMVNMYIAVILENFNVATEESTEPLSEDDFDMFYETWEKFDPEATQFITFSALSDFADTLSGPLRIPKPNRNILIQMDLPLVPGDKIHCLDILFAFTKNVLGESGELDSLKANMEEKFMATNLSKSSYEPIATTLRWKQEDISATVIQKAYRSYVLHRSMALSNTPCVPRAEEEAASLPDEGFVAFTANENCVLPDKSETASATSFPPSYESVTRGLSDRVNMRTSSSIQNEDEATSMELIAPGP

Compound	IC50 [nM]
C[C@@H]1CN(c2ncc(C(F)(F)F)cc2C(=O)Nc2ccc3c(c2)S(=O)(=O)NC3)C[C@H](C)C1(F)F [Example 111, 2-[(3S,5R)-4,4-difluoro-3,5-dimethyl-1-piperidyl]-N-(1,1-dioxo-2,3-dihydro-1,2-benzothiazol-6-yl)-5-(trifluoromethyl) pyridine-3-carboxamide]	63
NS(=O)(=O)c1cccc(NC(=O)c2cc(C(F)(F)F)cnc2N2CC3CC(F)(F)C3C2)c1 (single isomer, unassigned) [Example 136, 2-[(1R,5S or 1S,5R)-6,6-difluoro-3-azabicyclo[3.2.0]heptan-3-yl]-N-(3-sulfamoyl-phenyl)-5-(trifluoromethyl)-pyridine-3-carboxamide]	87
NS(=O)(=O)c1cccc(NC(=O)c2cc(C(F)(F)F)cnc2N2CCCC(F)(F)C2)c1 [Example 51, 2-(3,3-difluoro-1-piperidyl)-N-(3-sulfamoylphenyl)-5-(trifluoromethyl)-pyridine-3-carboxamide]	244
COC(=O)C1CCCN(c2ncc(C(F)(F)F)cc2C(=O)Nc2cccc(S(N)(=O)=O)c2)CC1 (stereo not drawn) [Example 48, methyl 1-[3-[(3-sulfamoylphenyl)-carbamoyl]-5-(tri-fluoromethyl)-2-pyridyl]azepane-4-carboxylate]	161
CS(=O)(=O)c1cccc(NC(=O)c2cc(C(F)(F)F)cnc2N2CCC(F)CC2)c1 [Example 100, 2-(4-fluoro-1-piperidyl)-N-(3-methylsulfonylphenyl)-5-(trifluoromethyl)-pyridine-3-carboxamide]	227
NS(=O)(=O)c1ccc(O)c(NC(=O)c2cc(C(F)(F)F)cnc2N2CCCCCC2)c1 [Example 25, 2-(azepan-1-yl)-N-(2-hydroxy-5-sulfamoyl-phenyl)-5-(trifluoro-methyl)pyridine-3-carboxamide]	337
CC1CN(c2ncc(C(F)(F)F)cc2C(=O)Nc2cccc(S(N)(=O)=O)c2)CC(C)O1 (single isomer, unassigned) [Example 149, 2-[(2R,6S or 2S,6R)-2,6-dimethylmorpholin-4-yl]-N-(3-sulfamoylphenyl)-5-(trifluoromethyl) pyridine-3-carboxamide]	351
NS(=O)(=O)c1cccc(NC(=O)c2cc(C(F)(F)F)cnc2N2CCC(F)C2)c1 (stereo not drawn) [Example 62, 2-(3-fluoropyrrolidin-1-yl)-N-(3-sulfamoyl-phenyl)-5-(trifluoro-methyl)pyridine-3-carboxamide]	1830
Cc1nc(N2CCCC(F)(F)CC2)c(C(=O)Nc2cccc(S(C)(=O)=O)c2)cc1C#N [Example 176, 5-cyano-2-(4,4-difluoroazepan-1-yl)-6-methyl-N-(3-methyl-sulfonylphenyl) pyridine-3-carboxamide]	7.3
NS(=O)(=O)c1cccc(NC(=O)c2cc(C(F)(F)F)cnc2N2CCC3(CC2)CC3)c1 [Example 43, 2-(6-azaspiro[2.5]octan-6-yl)-N-(3-sulfamoylphenyl)-5-(trifluoromethyl)nicotinamide]	57
NS(=O)(=O)c1cccc(NC(=O)c2cc(C(F)(F)F)cnc2N2CCOCC2)c1 [Example 69, 2-morpholino-N-(3-sulfamoylphenyl)-5-(trifluoromethyl) pyridine-3-carboxamide]	4060
Cc1nc(N2CCCCCC2)c(C(=O)Nc2cccc(S(N)(=O)=O)c2)c(C)c1Cl [Example 2, 2-(azepan-1-yl)-5-chloro-4,6-dimethyl-N-(3-sulfamoylphenyl)nicotinamide]	0.7
COC(=O)N1CCN(c2ncc(C(F)(F)F)cc2C(=O)Nc2cccc(S(N)(=O)=O)c2)CC1 [Example 74, methyl 4-[3-[(3-sulfamoylphenyl)carbamoyl]-5-(trifluoro-methyl)-2-pyridyl]-piperazine-1-carboxylate]	9970
Cc1ccc(C(=O)Nc2cccc(S(N)(=O)=O)c2)c(N2CCCCCC2)n1 [Example 90, 2-(azepan-1-yl)-6-methyl-N-(3-sulfamoyl-phenyl)pyridine-3-carboxamide]	17
NS(=O)(=O)c1cccc(NC(=O)c2cc(OC(F)(F)F)cnc2N2CCCC(F)(F)CC2)c1 [Example 39, 2-(4,4-difluoroazepan-1-yl)-N-(3-sulfamoylphenyl)-5-(trifluoromethoxy)nicotinamide]	2.5
CN1C2CCC1CN(c1ncc(C(F)(F)F)cc1C(=O)Nc1cccc(S(N)(=O)=O)c1)C2 (racemic) [Example 71, 2-[rac-(1S,5R and 1R,5S)-8-methyl-3,8-diazabicyclo[3.2.1]-octan-3-yl]-N-(3-sulfamoylphenyl)-5-(trifluoromethyl) pyridine-3-carboxamide]	5550
CS(=O)(=O)c1cccc(NC(=O)c2cc(C(F)(F)F)cnc2N2CCCCCCC2)c1 [Example 95, 2-(azocan-1-yl)-N-(3-methylsulfonylphenyl)-5-(trifluoromethyl)-pyridine-3-carboxamide]	20
NS(=O)(=O)c1cccc(NC(=O)c2ccc(F)nc2N2CCCCCC2)c1 [Example 93, 2-(azepan-1-yl)-6-fluoro-N-(3-sulfamoyl-phenyl)pyridine-3-carboxamide]	59

More lines, in order of falling IC50, values ahead:

IC50 [nM]	Compound
4430	O=C(Nc1cccc(S(=O)(=O)N2CCCC2)c1)c1cc(C(F)(F)F)cnc1N1CCCCCC1 [Example 24, 2-(azepan-1-yl)-N-(3-pyrrolidin-1-yl-sulfonylphenyl)-5-(trifluoromethyl)-pyridine-3-carboxamide]
2240	CC(C)Cc1cnc(N2CCCCC2)c(C(=O)Nc2cccc(S(N)(=O)=O)c2)c1 [Example 153, 5-isobutyl-2-(piperidin-1-yl)-N-(3-sulfamoylphenyl)nicotinamide]
616	NS(=O)(=O)c1cccc(NC(=O)c2cc(C(F)(F)F)cnc2N2CC(C(F)(F)F)C2)c1 [Example 58, N-(3-sulfamoylphenyl)-5-(trifluoromethyl)-2-[3-(trifluoromethyl)-azetidin-1-yl]pyridine-3-carboxamide]
502	NS(=O)(=O)c1cccc(NC(=O)c2cc(C(F)(F)F)cnc2N2CCCO[C@@H](C(F)(F)F)C2)c1 [Example 144, (R)—N-(3-sulfamoylphenyl)-5-(trifluoromethyl)-2-(2-(trifluoromethyl)-1,4-oxazepan-4-yl) nicotinamide]
304	CC1(O)CCCN(c2ncc(C(F)(F)F)cc2C(=O)Nc2cccc(S(N)(=O)=O)c2)CC1 (stereo not drawn) [Example 53, 2-(4-hydroxy-4-methyl-azepan-1-yl)-N-(3-sulfamoylphenyl)-5-(trifluoromethyl)-pyridine-3-carboxamide]
239	NS(=O)(=O)c1cccc(NC(=O)c2cc(C(F)(F)F)cnc2N2CCC(C(F)F)CC2)c1 [Example 50, 2-[4-(difluoromethyl)-1-piperidyl]-N-(3-sulfamoylphenyl)-5-(trifluoromethyl)-pyridine-3-carboxamide]
72	CC1CN(c2ncc(C(F)(F)F)cc2C(=O)Nc2ccc3c(c2)S(=O)(=O)NC3)CCC1(F)F (single isomer, unassigned) [Example 112, 2-[(3R or 3S)-4,4-difluoro-3-methyl-1-piperidyl]-N-(1,1-dioxo-2,3-dihydro-1,2-benzothiazol-6-yl)-5-(trifluoromethyl) pyridine-3-carboxamide]
40	CS(=O)(=O)c1cccc(NC(=O)c2cc(C(F)(F)F)cnc2N2CC3CCC(F)(F)C3C2)c1 (stereo not drawn) [Example 96, 2-(4,4-difluoro-1,3,3a,5,6,6a-hexahydrocyclopenta[c]pyrrol-2-yl)-N-(3-methylsulfonylphenyl)-5-(trifluoromethyl)-pyridine-3-carboxamide]
21	NS(=O)(=O)c1cccc(NC(=O)c2cc(C(F)(F)F)cnc2N2C[C@@H]3[C@H](C2)C(F)(F)C3(F)F)c1 [Example 133, N-(3-sulfamoylphenyl)-2-[(1R,5S)-6,6,7,7-tetrafluoro-3-azabicyclo-[3.2.0]heptan-3-yl]-5-(trifluoromethyl)-pyridine-3-carboxamide]
10	Cc1nc(N2CCCCCC2)c(C(=O)Nc2cccc(S(N)(=O)=O)c2)cc1C#N [Example 157, 2-(azepan-1-yl)-5-cyano-6-methyl-N-(3-sulfamoylphenyl)-pyridine-3-carboxamide]
7.3	NS(=O)(=O)c1cccc(NC(=O)c2cc(C3CC3)cnc2N2CCCC(F)(F)CC2)c1 [Example 163, 5-cyclopropyl-2-(4,4-difluoroazepan-1-yl)-N-(3-sulfamoyl-phenyl)nicotinamide]
7.1	CC(C)c1cnc(N2CCCC(F)(F)CC2)c(C(=O)Nc2cccc(S(N)(=O)=O)c2)c1 [Example 162, 2-(4,4-difluoroazepan-1-yl)-5-isopropyl-N-(3-sulfamoylphenyl)nicotinamide]
